Reference: PMC5962708, “Structure-Based Design, Synthesis, Biological Evaluation, and Molecular Docking of Novel PDE10 Inhibitors With Antioxidant Activities” (Frontiers in Chemistry, 2018)
Several values for one entry are separate records, joined by “and”; a condition that tells them apart may be missing. Equal entries are not always repeated.

Columns and labels:
[1] = Antioxidant assay: oxygen radical absorbance capacity fluorescein (ORAC-FL) method; conditions: AAPH 12 mM, fluorescein 150 nM, pH 7.4, 37°C, samples 1–10 μM
Procedure: The modified oxygen radical absorbance capacity fluorescein (ORAC-FL) method was performed to determine the antioxidant activity (Ou et al., [2001]; Dávalos et al., [2004]). The reaction was diluted with 75 mM phosphate buffer (pH = 7.4), and the volume of the final reaction mixture was 200 μL in well. Test compound (20 μL) and fluorescein (120 μL, 150 nM final concentration) were placed in the well of a black 96 well optical bottom plates. After the mixture was incubated at 37°C for 15 min, AAPH solution (60 μL, 12 mM final concentration) was added rapidly. The plate was placed in a Spectrafluor Plus plate reader (Tecan, Crailsheim, Germany) and the fluorescence was recorded every minute for 4 h with an excitation wavelength at 485 nm and emission wavelength at 535 nm. Trolox was used as standard (1–8 μM, final concentration). A blank (fluorescein + AAPH) with phosphate buffer instead of test compounds and trolox calibration were performed for the assays of antioxidants. The samples were measured at different concentration (1–10 μM). All the reaction mixtures were prepared fourfold, and at least three independent assays were performed for each sample. Fluorescence in time course was normalized on basis of the blank (without antioxidants). The ORAC-FL values were calculated as the reported method. Final ORAC-FL values were expressed in μM of trolox equivalents. Ferulic acid was used as the positive reference compound, showing an ORAC-FL value of 1.6 trolox equivalents.

[2] = target: T1, PDE10A catalytic domain (residues 446-789) (Homo sapiens, UniProt Q9Y233); test: PDE10A enzymatic assay (3H-cGMP hydrolysis, scintillation counting); type: biochemical; conditions: for inhibition at 1 µM: compound concentration 1 μM, read-out: PDE10 inhibitory assay Inhibition ratio (1 μM) (%); for IC50: mean of three independent determinations, 3H-cGMP substrate, read-out: PDE10 inhibitory assay IC50
T1 construct: coding the catalytic domain (residues 446-789); inferred from the pET15b vector and the Ni-NTA purification) (N); made in house; host or cells: E. coli BL21 (Codonplus, Stratagene)
Procedure: The recombinant pET15b-PDE10A plasmid coding the catalytic domain (residues 446-789) was subcloned and purified according to the following protocols previously reported (Li et al., [2015]). Then it was transferred into E. coli strain BL21 (Codonplus, Stratagene). The E. coli cells carrying the recombinant plasmid were cultured in an 2XYT medium (containing 100 μg/mL ampicillin and 30 μg/mL chloramphenicol) at 37°C until OD600 = 0.6-0.8. And then, 1 mM isopropyl-β-D-thiogalactopyranoside was added in to induce the PDE10A protein expression at 20°C for 24 h. The nickel nitriloacetic acid (Ni-NTA) column (Qiagen) was used for purifying PDE10A proteins. The concentration of the PDE10 fractions was estimated based on the absorbance at 280 nm (calculated by the ProtParam software).
The enzymatic activities of the catalytic domains of PDE10A were performed using ^3H-cGMP solution in the assay buffer of 50 mM Tris pH = 7.5, 4 mM MgCl2, 1 mM DTT, and ^3H-cGMP giving 20,000–30,000 cpm after the reaction terminated per assay. To a solution (DMSO) of test compounds in different concentration, the PDE10A enzyme in the assay buffer was added to perform the enzymatic reaction and then incubated at room temperature for 15 min. The assay was then terminated by addition of 0.2 M ZnSO4, Subsequently, 0.2 N Ba(OH)2 was added to precipitate the reaction product ^3H-GMP, whereas unreacted ^3H-cGMP remained in the supernatant. The radioactivity in the supernatant was measured in 2.5 mL Ultima Gold liquid scintillation cocktails (PerkinElmer) by a liquid scintillation counter (PerkinElmer 2910). The IC50 values of test compounds at PDE10A enzymes were measured by repeating of three independent experiments using the nonlinear regression method.

PDE10A = test system: PDE10A; parameters: method as in Siuciak et al., 2006a; conditions: ref Siuciak et al., 2006a; read-out: IC50 toward PDE10A; cited from earlier work

T1 sequence (Q9Y233 712-1055): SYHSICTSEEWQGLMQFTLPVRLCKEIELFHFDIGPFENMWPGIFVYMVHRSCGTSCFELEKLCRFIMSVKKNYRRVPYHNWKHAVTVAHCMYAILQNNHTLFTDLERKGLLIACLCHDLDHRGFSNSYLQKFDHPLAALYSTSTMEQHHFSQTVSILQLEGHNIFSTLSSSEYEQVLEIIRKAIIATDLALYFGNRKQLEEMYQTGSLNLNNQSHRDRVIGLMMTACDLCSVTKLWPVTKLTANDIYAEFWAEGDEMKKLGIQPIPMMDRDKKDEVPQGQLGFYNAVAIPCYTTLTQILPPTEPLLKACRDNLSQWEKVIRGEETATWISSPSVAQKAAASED

Row | inhibition at 1 µM [2] [%] | IC50 [2] | SMILES | ORAC (oxygen radical absorbance capacity) [1] | IC50 (PDE10A) [nM]
1 | 78 | < 1000 nM and 330 nM | COc1cc2ncnc(NCCc3c[nH]c4cc(F)ccc34)c2cc1OC [Compound 11f, N-(2-(6-fluoro-1H-indol-3-yl)ethyl)-6,7-dimethoxyquinazolin-4-amine] | 1.0 trolox equivalents and 1.0 ± 0.1 trolox equivalents | –
2 | 64 | – | COc1cc2ncnc(NCCc3c[nH]c4ccc(C)cc34)c2cc1OC [Compound 11g, 6,7-dimethoxy-N-(2-(5-methyl-1H-indol-3-Yl)ethyl)quinazolin-4-amine] | 1.0 ± 0.2 trolox equivalents | –
3 | 66 | – | COc1cc2ncnc(NCCc3c[nH]c4ccc(Br)cc34)c2cc1OC [Compound 11h, N-(2-(5-bromo-1H-indol-3-yl)ethyl)-6,7-dimethoxyquinazolin-4-amine] | 1.9 ± 0.1 trolox equivalents | –
4 | 49 | – | COc1ccc2[nH]cc(CCNc3ncnc4cc(OC)c(OC)cc34)c2c1 [Compound 11c, 6,7-dimethoxy-N-(2-(5-methoxy-1H-indol-3-yl)ethyl)quinazolin-4-amine] | 2.2 trolox equivalents and 2.2 ± 0.03 trolox equivalents | –
5 | 56 | – | COc1ccc2[nH]cc(CC(C)Nc3ncnc4cc(OC)c(OC)cc34)c2c1 (stereo not drawn) [Compound 11d, 6,7-dimethoxy-N-(1-(5-methoxy-1H-indol-3-yl)propan-2-yl)quinazolin-4-amine] | 1.3 trolox equivalents and 1.3 ± 0.1 trolox equivalents | –
6 | 66 | – | COc1cc2ncnc(NC(C)Cc3c[nH]c4ccccc34)c2cc1OC (stereo not drawn) [Compound 11b, N-(1-(1H-indol-3-yl)propan-2-yl)-6,7-dimethoxyquinazolin-4-amine] | 1.5 ± 0.1 trolox equivalents | –
7 | 76 | < 1000 nM and 640 nM | COc1cc2ncnc(NCCc3c[nH]c4ccc(O)cc34)c2cc1OC [Compound 11e, 3-(2-((6,7-dimethoxyquinazolin-4-yl)amino)ethyl)-1H-indol-5-ol] | 2.3 trolox equivalents and 2.3 ± 0.2 trolox equivalents | –
8 | 72 | < 1000 nM and 760 nM | COc1cc2ncnc(NCCc3c[nH]c4ccccc34)c2cc1OC [Compound 11a, N-(2-(1H-indol-3-yl)ethyl)-6,7-dimethoxyquinazolin-4-amine] | 1.3 ± 0.1 trolox equivalents | –

Continued, compound first:

Row | SMILES | inhibition at 1 µM [2] [%] | IC50 [2] | ORAC (oxygen radical absorbance capacity) [1] | IC50 (PDE10A) [nM]
9 | COc1cc2ncnc(NCCc3nc4ccccc4[nH]3)c2cc1OC [Compound 13, N-(2-(1H-benzo[d]imidazol-2-yl)ethyl)-6,7-dimethoxyquinazolin-4-amine] | 80 | < 1000 nM and 680 nM | 0.15 ± 0.02 trolox equivalents | –
10 | COc1cc2ncnc(N3CCOCC3)c2cc1OC(=O)C=Cc1ccc(O)cc1 [Compound 8b, 7-methoxy-4-morpholinoquinazolin-6-yl 3-(4-hydroxyphenyl)acrylate] | 26 | – | 3.3 trolox equivalents and 3.3 ± 0.1 trolox equivalents | –
11 | COc1cc(/C=C/C(=O)O)ccc1O [Ferulic acid, reference compound] | – | – | 1.6 trolox equivalents and 1.6 ± 0.1 trolox equivalents | –
12 | COc1cc2ncnc(N3CCOCC3)c2cc1OC(=O)CCCCC1CCSS1 (stereo not drawn) [Compound 8c, 7-methoxy-4-morpholinoquinazolin-6-yl 5-(1,2-dithiolan-3-yl)pentanoate] | 24 | – | 0.3 ± 0.01 trolox equivalents | –
13 | COc1ccc(Cc2nccc3cc(OC)c(OC)cc23)cc1OC [Papaverine] | – | – | – | 10 to 300
14 | COc1cc2ncnc(N3CCOCC3)c2cc1OCCc1c[nH]c2ccccc12 [Compound 8a, 4-(6-(2-(1H-indol-3-yl)ethoxy)-7-methoxyquinazolin-4-yl) morpholine] | 57 | – | 1.0 trolox equivalents and 1.0 ± 0.1 trolox equivalents | –
15 | COc1cc2ncnc(NC(C)CCc3c[nH]c4ccccc34)c2cc1OC (stereo not drawn) [Compound 12] | 84 | < 1000 nM and 240 nM | 1.3 trolox equivalents and 1.3 ± 0.2 trolox equivalents | –
